Data as given in patent US11168052B2, “Carbamate derivative compounds, processes for preparing them and their uses” (BIO-PHARM SOLUTIONS CO., LTD., priority 2016, dated 2021).

Columns and labels:
[1] = tested on: CFA-induced pain model in rats; assay: Antiallodynic activity on Complete Freund's Adjuvant (CFA)-induced inflammatory pain model; format: in vivo, Sprague-Dawley rats; details: 50 mg/kg intraperitoneally, von Frey threshold relative to sham, 0.5 hr after administration; for response vs control in vivo at 50 mg/kg: Rattus norvegicus, ip, read-out: Efficacy of 50 mg/kg(%)
Procedure: Male, Sprague-Dawley rats (210-250 g, Nara Bio, Korea) were habituated for 1 week before surgery and allowed free access to food and water throughout the experimentation. Room temperature and humidity were maintained at 24±2 and 50±10%, respectively.
CFA-induced inflammatory pain was induced by the procedure of Nagakura et al. (2003) and Gregory P. et al. (2010) with minor modifications. CFA (sigma, USA) was injected in the right plantar with a 100 ul volume under gaseous anesthesia with isoflurane. Sham controls were injected with 100 ul of saline, and preparation of the vehicle controls were identical to the group treated with compound, except for administration of vehicles without indentical to the vihecle control group.
Tactile sensitivity (Mechanical allodynia) was evaluated using von Frey monofilaments before and after treatment, and animals were include in the study only if the withdrawal threshold value was less than 4 g. One week after CFA injection, CFA-infused animals, sham-operated animal, and vehicle-operated animals were tested for tactile sensitivity with von Frey monofilaments, with 3 trials for each animal. All Animals were placed in a stainless steel mashe chamber and habituated for 30 min in the test cage. The tactile sensitivity for ipsilateral hind paw was measured using the up-and-down method (Dixon, 1980) with seven von Frey monofilaments (0.4, 1, 2, 4, 6, 8, and 15 g) to 3 trials. The tactile sensitivity test was followed by Dixon's method (Dixon, 1980). The 50% paw withdrawal threshold for each paw was calculated using the following formula: [Xth]log=[vFr]log+ky where [vFr] is the force of the last von Frey used, k=0.2249 which is the average interval (in log units) between the von Frey monofilaments, and y is a value that depends upon the pattern of withdrawal responses (Dixon, 1980).
Antiallodynic effect of compounds was evaluated at the dose of 50 mg/kg (n=4-6), intraperitoneally administrated in a volume of 5 ul/g bw in a vehicle of 30% (v/v) PEG or 20% (v/v) Tween 80. The test was performed peak time of efficacy (0.5 hr) after compound administration.
The relative values compared to the sham (% control) were calculated and shown in Table 5, which show an antiallodynic effect of Compound 1 on CFA-induced pain model in rats.

[2] = tested on: MES (electroshock) seizure in mice; assay: Anti-epilepsy activity, MES test in mouse; format: in vivo, ICR mice
Procedure: (§1) In the MES test (Ref., G. Villetti et al. Neuropharmacology 40(2001) 866-878), an electrical stimulus (mice: 50 mA, 60 Hz, 0.2 sec, and rats: 150 mA, 60 Hz, 0.2 sec in the test animal) supplied by an 11A Shocker (IITC Life Science Company) was delivered through corneal electrodes. All mice or rats assigned to any electroshock at peak time were treated with each test compound sample which was dissolved in 20% tween 80 prepared by saline solvent applied orally before the test. […] Three doses of the test sample were administered orally to 9-18 animals (3-6 mice per dose) for evaluating the respective doses at which 50% of the animals were protected from seizure (ED50). The ED50 value (median effective dose) was calculated by Litchfield and Wicoxon log-probit method which is a dose-response relationship. Experimental animals, male ICR mice and male SD rats, were purchased from OrientBio, Samtako, or Nara Biotech, Korea, and housed in cages (4-5 mice or 3 rats per cage) for 4-5 days. The range of mice body weight was between 19 and 25 grams and range of rats body weight was between 100 and 130 grams.

[3] = tested on: MES (electroshock) seizure in rats; assay: Anti-epilepsy activity, MES test in rats; format: in vivo, SD rats; details: for ED50: Rattus norvegicus, po; for MES test (po) efficacy %: dose 10 mg/kg
Procedure: as §1

[4] = tested on: PTZ (Pentylenetetrazol)-induced clonic seizure in mice; assay: Anti-epilepsy activity, scPTZ test in mouse; format: in vivo, ICR mice
Excerpt: (§2) In this experiment, each test compound sample was formulated as described in Biological Experimental Example 1, and administered intraperitoneally to the test animals (mice; ICR or Rat; SD); Experimental animals, male ICR mice and male SD rats, were purchased from OrientBio or Nara biotech, Korea, and housed 4-5 mice per a cage for 4-5 days. The range of mice body weight was used between 19 and 26 grams and range of rats body weight was used between 100 and 130 grams. After Peak time (0.5, 1, 2 and 4 hr) from the administration, PTZ (Pentylenetetrazol) was administered subcutaneously in the concentration capable of inducing 97% intermittent convulsions (mice: 100-110 mg/kg?bw, 10 μl/g, or rats: 90-110 mg/kg?bw, 2 μl/g). If clonic seizure was not observed for at least 30 minutes in the PTZ administered animal, it can be considered that the test compound has anti-epilepsy activity. The median effective dose (ED50) is determined using 6 animals per a concentration (total three different concentrations), and calculated by Litchfield and Wicoxon log-probit method which is a dose-response relationship.

[5] = tested on: Lithium-pilocarpine induced seizure in rats; assay: Lithium-pilocarpine induced epilepsy test (LI-PILO), prevention test; format: in vivo, Sprague-Dawley rats; details: i.p.
Procedure: Male Sprague-Dawley rats (purchased from Orient Bio Inc. Korea) of body weight 175 grams were used for these studies and 3 rats per cage were housed for 4-5 days. On the day prior to SE, rats received 127 mg/kg lithium chloride (Sigma, St. Louis, Mo., U.S.A.) intraperitoneally (i.p.). Approximately 18-20 h following this treatment, rats were given an i.p. injection of the concentration capable of inducing 97% intermittent convulsions pilocarpine(Sigma, 30-43 mg/kg). An i.p. injection of 2 mg/kg methyl-scopolamine (Sigma) was administered 30 min prior to pilocarpine to block the effects of the muscarinic agonist on peripheral cholinergic receptors. Test drugs were dissolved in 20% tween80 (Sigma).
The drugs were administered intraperitoneally (i.p.) in a volume of 2 μl/g body weight. Pharmacological effects of all of the test materials were evaluated to compare test groups (n=6) with a control group (n=6). Control group was administered vehicle only. The efficacy was measured 0.5, 1, 2, or 4 hours after the administration of the test material. The time point that the most animals were protected was defined as peak time and the ED50 was determined at peak time. The animals were then transferred to observation cages and observed continuously for 90 min Seizure was elicited in approximately 95% of the control group. Protection was defined as complete absence of seizure grade 3-5 (Racine scale; Racine, 1972) over the 90-min observation period. The effective dose of the compound necessary to protect 50% of the animals against seizures compared to controls (i.e., ED50) was determined by a curve fitting program (Excel 2007, Microsoft).

[6] = tested on: acetic acid-induced writhes in ICR mice; assay: Writhing test (acetic acid); format: in vivo; details: Mus musculus, po
Procedure: To examine the pain relief effect of the carbamate compounds, a writhing test was conducted, referring to Fischer, L. G. et al. (2008).
ICR mice (male, 24-28g; Orient Bio, Korea) were habituated before test (in test room) for 1 hour. Animals were fasted 2 hr before administration of compounds. Each of compounds was orally administered at the three dose, 10 ul/g, bw (n=3-5/group). All compounds were dissolved in a vehicle of 30% (v/v) PEG 400 or 20% (v/v) Tween 80. The control group was treated the vehicle without compounds.
0.2-2 hour after the administration of compounds, 0.6% acetic acid at the dose of 10 ul/g by bodyweight was injected into the mice Animals were habituated in the cage for 5 min. 5 min after habituation, the number of writhes (abdominal constriction) was counted for 15 min, referring to Korzeniewska-Rybicka, I. et al. (1998) and compared with that of a control.
The relative values compared to the control (% control) were calculated and shown in […]

[7] = tested on: PTZ (Pentylenetetrazol)-induced clonic seizure in rats; assay: Anti-epilepsy activity, scPTZ test in rats; format: in vivo, SD rats
Excerpt: as §2

[8] = tested on: ICR mice, tail-flick analgesia meter; assay: Tail-flick test; format: in vivo; details: orally, withdrawal latency
Procedure: To examine the pain relief effect of the carbamate compounds, a tail-flick test was conducted, referring to Current Protocols in Neuroscience; Behavioral Neuroscience Unit 8.9.
ICR mice (male, 25-30g; Orient Bio, Korea) were habituated before test (in test room) for 1 hour. Animals were fasted 2 hr before administration of compounds. Each of Compound was orally administered at the 1-3 dose, 10 ul/g, by bodyweight (n=4-6/group). All compounds were dissolved in a vehicle of 30% (v/v) PEG 400 or 20% (v/v) Tween 80. The control group was treated the vehicle without compounds.
After the administration of compounds, the mice tail were put on a tail-flick analgesia meter. To avoid tissue damage, maximal exposure time to pain stimuli was restricted to 15 s. The withdrawal latency was measured to the time to the point when each mouse responded. The relative values compared to the control (% control) were calculated.
The relative values compared to the sham were calculated and shown in Table 7, which show effect of the compound of examples on tail-flick test in Mice.

[9] = po, read-out: MES test (po) efficacy %

## 8-chloro-1-hydroxy-1,2,3,4-tetrahydronaphthalen-2-yl carbamate (mixture of SR & RS) [Example 3]
[1]
  Efficacy of 50 mg/kg(%): 22.9%
[2]
  MES test (po) ED50: 27.3 mg/kg
[3]
  MES test (po) ED50: 12.1 mg/kg
[4]
  PTZ test (ip) ED50: 25.2 mg/kg

## NC(=O)O[C@H]1CCc2cccc(Cl)c2[C@@H]1O [Example 5, (1S, 2S)-8-chloro-1-hydroxy-1,2,3,4-tetrahydronaphthalen-2-yl carbamate]
[1]
  response vs control in vivo at 50 mg/kg: 30%
[2]; [9]
  responders at 100 mg/kg: 100%
[4]; dose 100 mg/kg
  PTZ test (ip) efficacy %: 100(16.6%)

## NC(=O)O[C@@H]1CCc2cccc(F)c2[C@@H]1O [Example 10, (1S, 2R)-8-fluoro-1-hydroxy-1,2,3,4-tetrahydronaphthalen-2-yl carbamate]
[1]
  response vs control in vivo at 50 mg/kg: 35.2%
[2]; [9]
  responders at 100 mg/kg: 100%
[3]
  ED50: 17.5 mg/kg
[5]; dose 100 mg/kg
  Lithium pilocarpine model (pre) efficacy %: 66.6%

## NC(=O)O[C@H]1c2c(Cl)cccc2CC[C@H]1O [Example 18, (1S, 2R)-8-chloro-2-hydroxy-1,2,3,4-tetrahydronaphthalen-1-yl carbamate]
[6]
  ED50: 55.6 mg/kg
[1]
  response vs control in vivo at 50 mg/kg: 50.2%
[2]; po
  ED50: 45.8 mg/kg
[3]
  ED50: 18.8 mg/kg
[7]; dose 50 mg/kg
  scPTZ test (ip) efficacy %: 50 (33.3%,
[5]; dose 100 mg/kg
  Lithium pilocarpine model (pre) efficacy %: 16.6%

## NC(=O)O[C@H]1c2c(F)cccc2CC[C@H]1O [Example 25, (1S, 2R)-8-fluoro-2-hydroxy-1,2,3,4-tetrahydronaphthalen-1-yl carbamate]
[2]; po, dose 50 mg/kg, read-out: MES test (po) efficacy %
  responders at 50 mg/kg: 75%
[3]
  MES test (po) efficacy %: 33.3%
[5]; dose 10 mg/kg
  Lithium pilocarpine model (pre) efficacy %: 33.3%

## NC(=O)O[C@@H]1Cc2cccc(Cl)c2[C@@H]1O [Example 51, (1S, 2R)-7-chloro-1-hydroxy-2,3-dihydro-1H-inden-2-yl carbamate]
[1]
  response vs control in vivo at 50 mg/kg: 40.1%
[2]; po
  ED50: 37 mg/kg
[3]
  ED50: 17.1 mg/kg
[7]; dose 100 mg/kg
  scPTZ test (ip) efficacy %: 100 (33.3%,

## NC(=O)O[C@H]1Cc2cccc(Cl)c2[C@@H]1O [Example 54, (1S, 2S)-7-chloro-1-hydroxy-2,3-dihydro-1H-inden-2-yl carbamate]
[8]
  Tail-flick test Dose: >200 mg/kg
[2]; po
  ED50: 26.7 mg/kg
[3]
  MES test (po) efficacy %: 33.3%
[5]; dose 100 mg/kg
  Lithium pilocarpine model (pre) efficacy %: 83.3%

## NC(=O)O[C@@H]1Cc2cccc(F)c2[C@@H]1O [Example 55, (1S, 2R)-7-fluoro-1-hydroxy-2,3-dihydro-1H-inden-2-yl carbamate]
[1]
  response vs control in vivo at 50 mg/kg: 34.4%
[2]; po
  ED50: 51.9 mg/kg
[5]; dose 100 mg/kg
  Lithium pilocarpine model (pre) efficacy %: 33.3%

## NC(=O)O[C@H]1c2c(Cl)cccc2C[C@H]1O [Example 63, (1S, 2R)-7-chloro-2-hydroxy-2,3-dihydro-1H-inden-1-yl carbamate]
[1]
  response vs control in vivo at 50 mg/kg: 53.1%
[2]; po
  ED50: 51.9 mg/kg
[3]
  ED50: 19.1 mg/kg
[7]; dose 100 mg/kg
  scPTZ test (ip) efficacy %: 100 (83.3%,

## NC(=O)O[C@@H]1c2c(Cl)cccc2C[C@@H]1O [Example 64, (1R, 2S)-7-chloro-2-hydroxy-2,3-dihydro-1H-inden-1-yl carbamate]
[1]
  response vs control in vivo at 50 mg/kg: 43.7%
[8]
  Tail-flick test Dose: >200 mg/kg
[2]; po
  ED50: 48.4 mg/kg
[3]
  ED50: 17.8 mg/kg
[7]; dose 50 mg/kg
  scPTZ test (ip) efficacy %: 50%
[5]; dose 100 mg/kg
  Lithium pilocarpine model (pre) efficacy %: 50%
